Results: US20160158317A1, “Antimicrobial Peptide Variants and Polynucleotides Encoding Same” (Adenium Biotech A/S, priority 2010, published 2016)
Where a SMILES comes first, the peptide text is derived from it. Bridges are numbered along the chain shown (N, C = ends).

Test: Determination of the protein binding (90% serum, 30 kDa filter, HPLC)
Type: in vitro ADME
Details: serum
Experimental: Protein binding assays were performed as follows. The purified peptides were mixed with 90% serum and centrifuged through a 30 kDa filter. The ultra-filtrate and the non filtrated serum samples were quantified by HPLC measurements and the protein binding was subsequently calculated.

CC(C)[C@@H]1NC(=O)[C@@H]2CSSC[C@H](NC(=O)[C@H](CO)NC(=O)[C@H](CCCNC(=N)N)NC(=O)[C@H](C)NC(=O)CNC(=O)[C@H](CC(N)=O)NC(=O)[C@H](CCCNC(=N)N)NC(=O)[C@H](Cc3ccc(O)cc3)NC1=O)C(=O)N[C@@H](Cc1ccc(O)cc1)C(=O)N[C@@H](CCCNC(=N)N)C(=O)N[C@@H](CCCNC(=N)N)C(=O)N[C@H](C(=O)N[C@@H](CC(N)=O)C(=O)O)CSSC[C@H](NC(=O)[C@H](Cc1ccccc1)NC(=O)CN)C(=O)N[C@@H](Cc1c[nH]c3ccccc13)C(=O)N[C@@H](Cc1c[nH]cn1)C(=O)N[C@@H](C(C)C)C(=O)N2 [compound 213] (H-GFCWHVCVYRNGARSCYRRCN-OH; disulfide 3-20, 7-16 (inferred); N-terminus and C-terminus assumed)
fraction unbound: 0.05

CC(C)[C@@H]1NC(=O)CNC(=O)[C@H](CC(N)=O)NC(=O)[C@H](CCCNC(=N)N)NC(=O)[C@H](CCCNC(=N)N)NC(=O)[C@H](C)NC(=O)[C@@H]2CSSC[C@H](NC(=O)[C@H](C(C)C)NC(=O)[C@H](CCCNC(=N)N)NC1=O)C(=O)N[C@@H](Cc1ccc(O)cc1)C(=O)N[C@@H](CCCNC(=N)N)C(=O)N[C@@H](CCCNC(=N)N)C(=O)N[C@H](C(=O)N[C@@H](CC(N)=O)C(=O)O)CSSC[C@H](NC(=O)[C@H](Cc1ccccc1)NC(=O)CN)C(=O)N[C@@H](Cc1c[nH]c3ccccc13)C(=O)N[C@@H](Cc1c[nH]cn1)C(=O)N[C@@H](C(C)C)C(=O)N2 [compound 218] (H-GFCWHVCARRNGVRVCYRRCN-OH; disulfide 3-20, 7-16 (inferred); N-terminus and C-terminus assumed)
fraction unbound: 0.01

CC(C)[C@@H]1NC(=O)[C@H](Cc2c[nH]cn2)NC(=O)[C@H](Cc2c[nH]c3ccccc23)NC(=O)[C@@H](NC(=O)[C@H](Cc2ccccc2)NC(=O)CN)CSSC[C@@H](C(=O)N[C@@H](CC(N)=O)C(=O)O)NC(=O)[C@H](CCCNC(=N)N)NC(=O)[C@H](CCCNC(=N)N)NC(=O)[C@H](Cc2ccc(O)cc2)NC(=O)[C@@H]2CSSC[C@H](NC1=O)C(=O)N[C@@H](Cc1c[nH]cn1)C(=O)N[C@@H](Cc1ccc(O)cc1)C(=O)N[C@@H](CCCNC(=N)N)C(=O)N[C@@H](CC(N)=O)C(=O)N[C@@H](CO)C(=O)N[C@@H](C(C)C)C(=O)N[C@@H](CCCNC(=N)N)C(=O)N[C@@H](C(C)C)C(=O)N2 [compound 219] (H-GFCWHVCHYRNSVRVCYRRCN-OH; disulfide 3-20, 7-16 (inferred); N-terminus and C-terminus assumed)
fraction unbound: 0.01

CC(C)[C@@H]1NC(=O)[C@@H]2CSSC[C@H](NC(=O)[C@H](C(C)C)NC(=O)[C@H](CCCNC(=N)N)NC(=O)[C@H](C(C)C)NC(=O)[C@H](CCCCN)NC(=O)[C@H](CC(N)=O)NC(=O)[C@H](CCCNC(=N)N)NC(=O)[C@H](Cc3ccc(O)cc3)NC1=O)C(=O)N[C@@H](Cc1c[nH]cn1)C(=O)N[C@@H](CCCNC(=N)N)C(=O)N[C@@H](CCCNC(=N)N)C(=O)N[C@H](C(=O)N[C@@H](CC(N)=O)C(=O)O)CSSC[C@H](NC(=O)[C@H](Cc1ccccc1)NC(=O)CN)C(=O)N[C@@H](Cc1c[nH]c3ccccc13)C(=O)N[C@@H](CC(N)=O)C(=O)N[C@@H](C(C)C)C(=O)N2 [compound 227] (H-GFCWNVCVYRNKVRVCHRRCN-OH; disulfide 3-20, 7-16 (inferred); N-terminus and C-terminus assumed)
fraction unbound: 0.2

CC(C)[C@@H]1NC(=O)[C@@H]2CSSC[C@H](NC(=O)[C@H](C(C)C)NC(=O)[C@H](CCCNC(=N)N)NC(=O)[C@H](C(C)C)NC(=O)[C@H](CCCNC(=N)N)NC(=O)[C@H](CC(N)=O)NC(=O)[C@H](CCCNC(=N)N)NC(=O)[C@H](Cc3ccc(O)cc3)NC1=O)C(=O)N[C@@H](Cc1c[nH]cn1)C(=O)N[C@@H](CCCNC(=N)N)C(=O)N[C@@H](CCCNC(=N)N)C(=O)N[C@H](C(=O)N[C@@H](CC(N)=O)C(=O)O)CSSC[C@H](NC(=O)[C@H](Cc1ccccc1)NC(=O)CN)C(=O)N[C@@H](Cc1c[nH]c3ccccc13)C(=O)N[C@@H](CC(N)=O)C(=O)N[C@@H](C(C)C)C(=O)N2 [compound 228] (H-GFCWNVCVYRNRVRVCHRRCN-OH; disulfide 3-20, 7-16 (inferred); N-terminus and C-terminus assumed)
fraction unbound: 0.14

CC(C)[C@@H]1NC(=O)[C@@H]2CSSC[C@H](NC(=O)[C@H](C(C)C)NC(=O)[C@H](CCCNC(=N)N)NC(=O)[C@H](C(C)C)NC(=O)[C@H](Cc3ccc(O)cc3)NC(=O)[C@H](CC(N)=O)NC(=O)[C@H](CCCNC(=N)N)NC(=O)[C@H](Cc3ccc(O)cc3)NC1=O)C(=O)N[C@@H](Cc1c[nH]cn1)C(=O)N[C@@H](CCCNC(=N)N)C(=O)N[C@@H](CCCNC(=N)N)C(=O)N[C@H](C(=O)N[C@@H](CC(N)=O)C(=O)O)CSSC[C@H](NC(=O)[C@H](Cc1ccccc1)NC(=O)CN)C(=O)N[C@@H](Cc1c[nH]c3ccccc13)C(=O)N[C@@H](CC(N)=O)C(=O)N[C@@H](C(C)C)C(=O)N2 [compound 229] (H-GFCWNVCVYRNYVRVCHRRCN-OH; disulfide 3-20, 7-16 (inferred); N-terminus and C-terminus assumed)
fraction unbound: 0.09

CC(C)[C@@H]1NC(=O)CNC(=O)[C@H](C)NC(=O)[C@H](CCCNC(=N)N)NC(=O)[C@H](Cc2ccc(O)cc2)NC(=O)[C@H](C(C)C)NC(=O)[C@@H]2CSSC[C@H](NC(=O)[C@H](C(C)C)NC(=O)[C@H](CCCNC(=N)N)NC1=O)C(=O)N[C@@H](Cc1c[nH]cn1)C(=O)N[C@@H](CCCNC(=N)N)C(=O)N[C@@H](CCCNC(=N)N)C(=O)N[C@H](C(=O)N[C@@H](CC(N)=O)C(=O)O)CSSC[C@H](NC(=O)[C@H](Cc1ccccc1)NC(=O)CN)C(=O)N[C@@H](Cc1c[nH]c3ccccc13)C(=O)N[C@@H](CC(N)=O)C(=O)N[C@@H](C(C)C)C(=O)N2 [compound 230] (H-GFCWNVCVYRAGVRVCHRRCN-OH; disulfide 3-20, 7-16 (inferred); N-terminus and C-terminus assumed)
fraction unbound: 0.29

CC(C)[C@@H]1NC(=O)CNC(=O)CNC(=O)[C@H](CCCNC(=N)N)NC(=O)[C@H](Cc2ccc(O)cc2)NC(=O)[C@H](C(C)C)NC(=O)[C@@H]2CSSC[C@H](NC(=O)[C@H](C(C)C)NC(=O)[C@H](CCCNC(=N)N)NC1=O)C(=O)N[C@@H](Cc1c[nH]cn1)C(=O)N[C@@H](CCCNC(=N)N)C(=O)N[C@@H](CCCNC(=N)N)C(=O)N[C@H](C(=O)N[C@@H](CC(N)=O)C(=O)O)CSSC[C@H](NC(=O)[C@H](Cc1ccccc1)NC(=O)CN)C(=O)N[C@@H](Cc1c[nH]c3ccccc13)C(=O)N[C@@H](CC(N)=O)C(=O)N[C@@H](C(C)C)C(=O)N2 [compound 231] (H-GFCWNVCVYRGGVRVCHRRCN-OH; disulfide 3-20, 7-16 (inferred); N-terminus and C-terminus assumed)
fraction unbound: 0.34

CC(C)[C@@H]1NC(=O)CNC(=O)[C@H](Cc2c[nH]cn2)NC(=O)[C@H](CCCNC(=N)N)NC(=O)[C@H](Cc2ccc(O)cc2)NC(=O)[C@H](C(C)C)NC(=O)[C@@H]2CSSC[C@H](NC(=O)[C@H](C(C)C)NC(=O)[C@H](CCCNC(=N)N)NC1=O)C(=O)N[C@@H](Cc1c[nH]cn1)C(=O)N[C@@H](CCCNC(=N)N)C(=O)N[C@@H](CCCNC(=N)N)C(=O)N[C@H](C(=O)N[C@@H](CC(N)=O)C(=O)O)CSSC[C@H](NC(=O)[C@H](Cc1ccccc1)NC(=O)CN)C(=O)N[C@@H](Cc1c[nH]c3ccccc13)C(=O)N[C@@H](CC(N)=O)C(=O)N[C@@H](C(C)C)C(=O)N2 [compound 232] (H-GFCWNVCVYRHGVRVCHRRCN-OH; disulfide 3-20, 7-16 (inferred); N-terminus and C-terminus assumed)
fraction unbound: 0.15

CC(C)[C@@H]1NC(=O)CNC(=O)[C@H](CCC(N)=O)NC(=O)[C@H](CCCNC(=N)N)NC(=O)[C@H](Cc2ccc(O)cc2)NC(=O)[C@H](C(C)C)NC(=O)[C@@H]2CSSC[C@H](NC(=O)[C@H](C(C)C)NC(=O)[C@H](CCCNC(=N)N)NC1=O)C(=O)N[C@@H](Cc1c[nH]cn1)C(=O)N[C@@H](CCCNC(=N)N)C(=O)N[C@@H](CCCNC(=N)N)C(=O)N[C@H](C(=O)N[C@@H](CC(N)=O)C(=O)O)CSSC[C@H](NC(=O)[C@H](Cc1ccccc1)NC(=O)CN)C(=O)N[C@@H](Cc1c[nH]c3ccccc13)C(=O)N[C@@H](CC(N)=O)C(=O)N[C@@H](C(C)C)C(=O)N2 [compound 233] (H-GFCWNVCVYRQGVRVCHRRCN-OH; disulfide 3-20, 7-16 (inferred); N-terminus and C-terminus assumed)
fraction unbound: 0.22

CC(C)[C@@H]1NC(=O)CNC(=O)[C@H](CCCNC(=N)N)NC(=O)[C@H](CCCNC(=N)N)NC(=O)[C@H](Cc2ccc(O)cc2)NC(=O)[C@H](C(C)C)NC(=O)[C@@H]2CSSC[C@H](NC(=O)[C@H](C(C)C)NC(=O)[C@H](CCCNC(=N)N)NC1=O)C(=O)N[C@@H](Cc1c[nH]cn1)C(=O)N[C@@H](CCCNC(=N)N)C(=O)N[C@@H](CCCNC(=N)N)C(=O)N[C@H](C(=O)N[C@@H](CC(N)=O)C(=O)O)CSSC[C@H](NC(=O)[C@H](Cc1ccccc1)NC(=O)CN)C(=O)N[C@@H](Cc1c[nH]c3ccccc13)C(=O)N[C@@H](CC(N)=O)C(=O)N[C@@H](C(C)C)C(=O)N2 [compound 234] (H-GFCWNVCVYRRGVRVCHRRCN-OH; disulfide 3-20, 7-16 (inferred); N-terminus and C-terminus assumed)
fraction unbound: 0.14

CC(C)[C@@H]1NC(=O)[C@H](CCCNC(=N)N)NC(=O)[C@H](C)NC(=O)CNC(=O)[C@H](CC(N)=O)NC(=O)[C@H](CCCNC(=N)N)NC(=O)[C@H](Cc2ccc(O)cc2)NC(=O)[C@H](C(C)C)NC(=O)[C@@H]2CSSC[C@H](NC1=O)C(=O)N[C@@H](Cc1c[nH]cn1)C(=O)N[C@@H](CCCNC(=N)N)C(=O)N[C@@H](CCCNC(=N)N)C(=O)N[C@H](C(=O)N[C@@H](CC(N)=O)C(=O)O)CSSC[C@H](NC(=O)[C@H](Cc1ccccc1)NC(=O)CN)C(=O)N[C@@H](Cc1c[nH]c3ccccc13)C(=O)N[C@@H](CC(N)=O)C(=O)N[C@@H](C(C)C)C(=O)N2 [compound 235] (H-GFCWNVCVYRNGARVCHRRCN-OH; disulfide 3-20, 7-16 (inferred); N-terminus and C-terminus assumed)
fraction unbound: 0.36
